Data as given in patent publication US20060106032A1, “Synthesis of N2 - (substituted arylmethyl) -3- (substituted phenyl) indazoles as novel anti-angiogenic agents” (YUNG SHIN PHARM. IND. CO., LTD., priority 2004, published 2006).

Assays:
[1] = system: VEGF-induced angiogenesis; details: previous finding; cited from earlier work
[2] = system: human umbilial vein endothelial cells (HUVECs); details: previous finding; cited from earlier work
[3] = system: thrombin-induced Ca++ signal and thromboxane production; details: previous work; cited from earlier work
[4] = biological target: T1, protease activated receptor (PAR)-4 (Homo sapiens, UniProt Q96RI0); details: previous works; cited from earlier work
T1 sequence (Q96RI0 18-385): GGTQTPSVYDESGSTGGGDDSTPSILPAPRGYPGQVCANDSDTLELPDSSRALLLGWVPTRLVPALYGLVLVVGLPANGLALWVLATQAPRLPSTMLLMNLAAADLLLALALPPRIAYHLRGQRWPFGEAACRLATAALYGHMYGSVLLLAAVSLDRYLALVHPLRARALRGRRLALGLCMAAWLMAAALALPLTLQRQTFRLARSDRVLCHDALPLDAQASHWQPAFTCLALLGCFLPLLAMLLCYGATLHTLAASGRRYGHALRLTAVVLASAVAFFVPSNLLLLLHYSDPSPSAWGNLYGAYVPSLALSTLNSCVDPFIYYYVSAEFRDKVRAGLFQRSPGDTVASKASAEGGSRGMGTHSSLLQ

[5] = system: Human umbilical vein endothelial cells (HUVECs); test: [3H]thymidine incorporation assay: VEGF-induced cell proliferation (DNA synthesis) of HUVECs; type: cell-based; details: VEGF 10 ng/mL
Method: (§1) Human umbilical vein endothelial cells were incubated in the absence (basal and control) or presence of tested sample (YD-3, 10, 15, 17, 21, 25, 26) with 30 μM, and then vascular endothelial growth factor (VEGF) was added (except for basal) to induce DNA synthesis, which was detected using [^3H] thymidine incorporation assay.
as §1, with “10” for “30”, “inducd” for “induce”, “assay. Means±S.E. (n=5) were presented.” for “assay.”
as §1, with “1” for “30”, “inducd” for “induce”, “assay. Means±S.E. (n=5) were presented.” for “assay.”
(§2) Human umbilical vein endothelial cells (HUVECS) were isolated according to the protocols from Jaffe et al. and obtained from human umbilical cord veins with collagenase and cultured in 75 cm^2 plastic flasks in M199 containing 20% FBS, 15 μg/mL endothelial cell growth supplements (ECGs). Confirmation of their identity as endothelial cells was provided by detection of CD31 (PECAM-1), assessed by immunostaining. Experiments were conducted on HUVECs that had used in passage 2 to 5.
Confluent HUVECs were trypsinized, suspended in DMEM supplemented with 20% FBS, and seeded at 1.0×10^4 cells per well into 96-well plates. After 24 h, the cells were washed twice with PBS and starved with 2% FBS-M199 medium for 24 h. The cells were incubated with or without indicated reagents and growth factors (VEGF; 10 ng/mL) for 24 h and harvested. Before the harvest, cells were incubated with [^3H]thymidine (2 μCi/mL) for 4 h, harvested with Filter-Mate (Packard), and incorporated radioactivity was determined.
The effect of tested compounds on VEGF-induced cell proliferation of HUVECs was assessed with the [^3H]thymidine incorporation assay, and the results were illustrated in FIG. 5-FIG. 7.

[6] = system: angiogenesis; test: Evaluation for anti-angiogenic activities (overall summary); details: summary statement
Method: 3-(4-Methylphenyl)-1H-indazole (10) and N^2-(substituted benzyl)-3-(4-methylphenyl)indazoles (15, 17, 21, 25, 26) were evaluated for anti-angiogenic activities.
In this study, 3-(4-methylphenyl)-1H-indazole (10) and five of the above mentioned N^2-regioisomers, namely, compounds 15, 17, 21, 25 and 26 were selected for evaluating their effects on VEGF-induced cell proliferation, on VEGF-induced tube formation of HUVECs in vitro, and on neovascular formation in vivo.

[7] = system: Human umbilical vein endothelial cells (HUVECs); test: VEGF-induced tube formation of HUVECs on Matrigel; type: cell-based; details: FIG. 8
Method: FIG. 8 show photographs of the results of in vitro assay (inhibition of tube formation). Human umbilical vein endothelial cells were cultured onto chamberslide, which was precoated with Matrigel (10 mg/ml). Cells were treated without (basal and control) or with tested sample (YD-3, 10, 15, 17, 21, 25, 26) and then vascular endothelial growth factor (VEGF) was added to induce tube formation. All photographs were taken at 100×magnification.
as §2

[8] = system: VEGF-induced angiogenesis in Matrigel plug; test: In vivo Matrigel plug assay (neovascular formation, hemoglobin concentration); details: nude mice, FIG. 9
Method: Nude mice were subcutaneously injected with a Matrigel plug containing 150 ng/ml vascular endothelial growth factor (VEGF). Vehicle or tested sample (YD-3, 10, 15, 17, 21, 25, 26) was orally administered into the mice. After a seven-day administration, the animals were euthanized and the plugs were cut of the mice for the measurement of angiogenic effect using the hemoglobin concentration as the parameter by means of a hemoglobin detection kit (Sigma). Means±S.E. (n=3) were presented. Nude mice (6 weeks of age) were given s.c. injections of 500 μL of Matrigel (Becton Dickinson, Bedford, Mass.) at 4° C. with or without YC-1 and growth factor (150 ng/mL VEGF). After injection, the Matrigel rapidly formed a plug. After 7 days, the skin of the mouse was easily pulled back to expose the Matrigel plug, which remained intact. After quantitative differences were noted and photographed, hemoglobin was measured, as an indication of blood vessel formation, using the Drabkin method (Drabkin reagent kit 525, Sigma, St. Louis, Mo.). The concentration of hemoglobin was calculated from a known amount of hemoglobin assayed in parallel. The in vivo Matrigel plug assay was used in this study to determine quantitative the anti-angiogenic effect of tested compounds.

Compound | inhibition of VEGF-induced angiogenesis in Matrigel plug animal model [1] | inhibition of VEGF-induced cell proliferation in HUVECs [2] | inhibition of VEGF-induced migration in HUVECs [2] | inhibition of VEGF-induced tube formation in HUVECs [2] | inhibition of low thrombin-induced Ca++ signal [3] | inhibition of low thrombin-induced thromboxane production [3] | inhibition of PAR-4-dependent activation [4] | inhibitory effect on VEGF-induced cell proliferation of HUVECs ([3H]thymidine incorporation) ([5]; 10 μM, FIG. 6) | inhibitory effect on VEGF-induced cell proliferation of HUVECs ([3H]thymidine incorporation) ([5]; 30 μM, FIG. 5) | anti-angiogenic activity (overall) [6] | inhibitory activity on tube formation compared with other tested compounds and YD-3 [7] | blockage of VEGF-induced tube formation of HUVECs ([7]; Matrigel-coated chamberslide) | melting point [°C] | anti-angiogenic activity in Matrigel plug assay (hemoglobin concentration) ([8]; 150 ng/ml VEGF plug, oral, seven-day administration) | anti-angiogenic potency in Matrigel plug assay compared with positive control YD-3 [8] | activity on VEGF-induced cell proliferation of HUVECs compared with positive control YD-3 ([5]; 1 μM)
CCOC(=O)c1ccc(-c2nn(Cc3ccccc3)c3ccccc23)cc1 [YD-3, Ethyl 4-(1-benzyl-1H-indazol-3-yl)benzoate] | inhibit | inhibit | inhibit | inhibit | effectively inhibits | effectively inhibits | selective and potent inhibitor | significant inhibitory effect | significant inhibitory effect |  |  |  |  |  |  | 
Cc1ccc(Cn2nc3ccccc3c2-c2ccc(C)cc2)cc1 [Compound 21, 2-(4-Methylbenzyl)-3-(4-methylphenyl)-2H-indazole] |  |  |  |  |  |  |  | significant inhibitory effect | significant inhibitory effect | significant anti-angiogenic activity | more potent than other tested compounds and YD-3 | significant blockage | 107.5 to 109.3 | significant anti-angiogenic activities | superior potency than the positive control YD-3 | better activity than positive control YD-3
O=C(O)c1ccc(-c2nn(Cc3ccccc3)c3ccccc23)cc1 [CHS-6, 4-(1-benzyl-1H-indazol-3-yl)benzoic acid] | inhibit | inhibit | inhibit | inhibit |  |  |  |  |  |  |  |  |  |  |  | 
